Data reported in patent publication US8053634B2, “Stabilization and blueing of anthocyanin pigments using gene encoding aromatic acyltransferase capable of transferring an aromatic acyl group to the 3′-position of anthocyanin” (Suntory Holdings Limited, priority 2004, dated 2011).

Tests used:
[1] = molecular target: T1, recombinant acyltransferase derived from Gentiana triflora expressed in E. coli (Gentiana triflora, UniProt Q9ZWR8); assay: Measurement of activity of recombinant acyltransferase (HPLC analysis of reaction products); type: biochemical; settings: for amount of product formed in time course of the reaction: 25-fold diluted enzyme, DEL 3G-5G-3′G 50, 100 or 200 μM as substrate, 2.5-20 minutes
T1 construct: a fragment containing the coding region of the acyltransferase and the 3′-untranslated region was subcloned to the NcoI/HindIII site; made in house; host or cells: E. coli JM109 (pQE8, derived from pQE60)
T1 sequence (Q9ZWR8 1-469): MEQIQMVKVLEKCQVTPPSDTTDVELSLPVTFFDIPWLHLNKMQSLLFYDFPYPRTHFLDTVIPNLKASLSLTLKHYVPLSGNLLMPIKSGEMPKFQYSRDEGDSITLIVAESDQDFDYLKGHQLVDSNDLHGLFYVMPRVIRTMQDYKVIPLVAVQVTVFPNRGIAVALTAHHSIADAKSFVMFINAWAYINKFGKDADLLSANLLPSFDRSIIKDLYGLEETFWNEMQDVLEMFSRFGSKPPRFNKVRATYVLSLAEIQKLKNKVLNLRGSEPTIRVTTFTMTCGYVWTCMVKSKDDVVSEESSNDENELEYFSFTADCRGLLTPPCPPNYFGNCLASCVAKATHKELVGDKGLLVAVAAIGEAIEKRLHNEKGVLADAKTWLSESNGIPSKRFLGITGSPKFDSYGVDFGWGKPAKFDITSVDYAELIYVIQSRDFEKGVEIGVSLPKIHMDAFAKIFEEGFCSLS
Protocol: The enzymatic activity of the recombinant enzyme obtained in Example 1 was measured with 3 types of delphinidin derivatives (delphinidin 3,5,3′-triglucoside (DEL 3G-5G-3′G), delphinidin 3-glucosyl-5-caffeoylglucosyl-3′-glucoside (DEL 3G-5CafG-3′G), delphinidin 3-glucosyl-5-glucosyl-3′-caffeoylglucoside (DEL 3G-5G-3′CafG)) shown in FIG. 1 and FIG. 2 as substrates. The reaction mixture contained 100 mM potassium phosphate buffer (pH 8.5), 0.2 mM caffeoyl-CoA, […] each of the above substrates and 5 μl of the enzyme solution in a total volume of 50 μl, and the reaction was carried out at 30° C. for 15 minutes. An equal volume of 90% acetonitrile solution containing 0.1% trifluoroacetic acid (TFA) was added to the reaction mixture to stop the reaction.
In order to analyze time course changes of reaction products, 5 μl of a 25-fold diluted enzyme solution and each of 50 μM, 100 μM or 200 μM of DEL 3G-5G-3′G were used as a substrate, and the reaction was stopped at 2.5, 5, 10, and 20 minutes later to analyze the products. The reaction products were analyzed with a reverse phase high performance liquid chromatography (HPLC) using a DE-41 column (4.6×250 mm, Shodex). Samples were eluted with an liner gradient of 20-50% of acetonitrile containing 0.5% TFA at 0.6 ml/min for 15 minutes, and then isoclatic elution at 0.6 ml/min for 10 minutes, and detected with SPD-M10A (SHIMAZU Corporation) at a wavelength of 250-600 nm. The HPLC elution time and absorption spectra of products were compared with those of authentic samples to identify the structure of products.

[2] = Flower color simulation: purified pigment in juice squeezed from rose petals (cv. Medeo); type: physicochemical; settings: Medeo squeezed juice (petal pH 4.38), diluted 4-fold; among five purified pigments
Protocol: In order to simulate the flower color when the gene for gentian anthocyanin 5,3′-acyltransferase was introduced into roses and DEL 3G-5CafG-3′CafG was accumulated in rose petals, the color development of a purified pigment suspended in juice squeezed form rose petals (cv. Medeo) was measured. As for purified pigments, DEL 3G-5CafG-3′CafG, and as a comparative control, DEL 3G-5G, cyanidin 3,5-diglucoside (CYA 3G-5G), pelargonidin 3,5-diglucoside (PEL 3G-5G) and malvidin 3,5-diglucoside (MAL 3G-5G) were used. About 20 g of Medeo petals frozen at −80° C. for more than one hour were squeezed by a garlic squeezer for household use, and centrifuged at 1000 rpm for 1 minute to remove the debris of the petals, and the supernatant was prepared as the squeezed juice.
Twenty μl of 50 mM DMSO solution of purified pigment was added to 1 ml of the squeezed juice, and kept for 10 minutes, and the absorption and transmittance spectra at 380-780 nm were measured with a spectrophotometer UV-2500PC(SHIMADZU Corporation). The transmittance spectrum values were converted into CIE L*a*b* color system (JISZ8729). […] However, since the absorbance for 3G-5CafG-3′CafG was too high, it was diluted 4-fold prior to measurement.

[3] = among four delphinidin glucosides, cited from earlier work
[4] = molecular target: T2, aromatic acyltransferase purified from gentian petals (Gentiana triflora, UniProt Q9ZWR8); assay: Activity of aromatic acyltransferase purified from gentian petals (active fraction adsorbed to Dyematrix column Red); type: biochemical; settings: as in Example 2
T2 construct: an enzyme naturally occurring in gentian petals also has both activities; from tissue; host or cells: Gentiana petals
T2 sequence (Q9ZWR8 1-469): T1 sequence (Q9ZWR8 1-469)
Text: The recombinant protein obtained by expressing a gentian cDNA of an aromatic acyltransferase in E. coli turned out to have an activity of transferring aromatic acyl groups to glucoses at the 5 and the 3′ position of a anthocyanin (Example 2). In order to confirm that an enzyme naturally occurring in gentian petals also has both activities of the 5-aromatic acyltransferase and the 3′-aromatic acyl transferase, this enzyme was purified from gentian petals. In a series of purification, as described in Example 2, each eluted fraction of column chromatography was measured for 5-aromatic acyltransferase activity with DEL 3G-5G as a substrate and for 3′-aromatic acyltransferase activity with DEL 3G-5G-3′G as a substrate.
According to a report by Fujiwara et al. (Fujiwara et al., Eur. J. Biochem. 249: 45, 1997) in which a gentian 5-aromatic acyltransferase was purified, 40-70% ammonium sulfate-saturated fraction was obtained from extract of approximately 100 g of Gentiana petals. This fraction was dialyzed with Sephadex G-25 (Pharmacia) equilibrated with 20 mM Tris-HCl (pH 7.0) containing 10 μM p-aminophenylmethanesulfonyl fluoride (APMSF) and 1 mM DTT (hereinafter referred to as the Tris buffer), then it was loaded to MONO Q (Pharmacia) equilibrated with the Tris buffer. […]
The active fractions were loaded to HiTrap Blue (Pharmacia) and extensively washed in the Tris buffer, and then the adsorbed fraction was eluted with a Tris buffer containing 0.9 M NaCl. […] When the eluted protein was subject to SDS-PAGE, only a single band was detected at molecular weight of 52 kDa which is an estimated molecular weight for an anthocyanin 5-acyltransferase.
In a series of purifications, each eluted fraction of column chromatography was measured for the 5-aromatic acyltransferase activity with DEL 3G-5G as a substrate and for the 5,3′-aromatic acyltransferase activity with DEL 3G-5G-3′G as a substrate, and the fractions with the highest activity in both acyltransferase reactions were completely identical.

[5] = molecular target: T3, 5,3′-aromatic acyltransferase from Gentiana triflora expressed in nierembergia (Gentiana triflora, UniProt Q9ZWR8); assay: In vitro 5,3′-aromatic acyltransferase activity of crude enzyme from petals of nierembergia transformants; type: biochemical; settings: in a manner similar to Example 2
T3 construct: expressed in transfected cells; host or cells: petals of transgenic nierembergia (binary construct pSPB1536, 35S promoter)
T3 sequence (Q9ZWR8 1-469): T1 sequence (Q9ZWR8 1-469)
Text: On the other hand, a crude enzyme was extracted from the petals of the transformants where transcription of all three genes were confirmed, in a manner as described in the report by Fujiwara et al. (Fujiwara et al., (1997) Eur. J. Biochem. 249: 45-51). […] On the other hand, when the crude enzyme from a non-recombinant nierembergia was used as the control, gentiodelphin was not detected.

[6] = 250 mM substrate, 0.2 mM caffeoyl-CoA, pH 8.5, 30° C., 15 minutes, undiluted enzyme

| Compound | amount of product formed in time course of the reaction [1] | maximum absorption spectrum (relative) [2] | absorbance maximum (relative wavelength) [3] | blueness (relative) [3] | relative stability (fading) ([3]; aqueous solution of pH 6.5) | substrate converted to DEL 3G-5CafG-3′CafG [1, 6] [%] | substrate converted to DEL 3G-5CafG-3′G (acyl group at the 5 position alone) [1, 6] [%] | substrate converted to DEL 3G-5G-3′CafG (acyl group at the 3′ position alone) [1, 6] [%] | reaction of the enzyme purified from gentian petals with the substrate [4] | product formation from the substrate by crude enzyme of transgenic nierembergia [5] |
| --- | --- | --- | --- | --- | --- | --- | --- | --- | --- | --- |
| O=C(/C=C/c1ccc(O)c(O)c1)OC[C@H]1O[C@@H](Oc2cc(-c3[o+]c4cc(O)cc(O[C@@H]5O[C@H](COC(=O)/C=C/c6ccc(O)c(O)c6)[C@@H](O)[C@H](O)[C@H]5O)c4cc3O[C@@H]3O[C@H](CO)[C@@H](O)[C@H](O)[C@H]3O)cc(O)c2O)[C@H](O)[C@@H](O)[C@@H]1O [DEL 3G-5CafG-3′CafG, gentiodelphin] | increased according to the reaction time | largest maximum absorption spectrum | longest wavelength | most blueish | most stable and refractory to fading | – | – | – | – | – |
| OC[C@H]1O[C@@H](Oc2cc3c(O[C@@H]4O[C@H](CO)[C@@H](O)[C@H](O)[C@H]4O)cc(O)cc3[o+]c2-c2cc(O)c(O)c(O[C@@H]3O[C@H](CO)[C@@H](O)[C@H](O)[C@H]3O)c2)[C@H](O)[C@@H](O)[C@@H]1O [DEL 3G-5G-3′G, delphinidin 3,5,3′-triglucoside] | – | – | – | – | – | 58.7 | 7.2 | ≤ 1 | reacted | formation of gentiodelphin was confirmed |
| delphinidin 3-glucosyl-5-caffeoylglucosyl-3′-glucoside [DEL 3G-5CafG-3′G] | increased according to the reaction time | – | – | – | – | 94.1 | – | – | reacted | – |
| delphinidin 3-glucosyl-5-glucosyl-3′-caffeoylglucoside [DEL 3G-5G-3′CafG] | barely detected | – | – | – | – | 95.2 | – | – | reacted | – |
